Laboratory results published in patent publication US20130101664A1, “MUC1 LIGAND TRAPS FOR USE IN TREATING CANCERS” (priority 2011, published 2013).

Assays:
[1] = test system: ZR-75-1 breast carcinoma cells; experiment: Cell proliferation by trypan blue exclusion, GO-101 with oxidative stress (H2O2); format: cell-based, human; conditions: 500 nM GO-101 and/or 1 mM H2O2, 3 days, compared to mock conditions
Experimental: FIG. 8. ZR-75-1 human breast carcinoma cells were treated with 500 nM GO-101 and/or 1 mM H2O2 for 3 days and the cell proliferation was measured by trypan blue exclusion method. The percent proliferation is shown to that compared with control.
To assess the effects of GO-101 on sensitivity of human carcinoma cells to oxidative stress, the inventors treated ZR-75-1 breast carcinoma cells with 500 nM GO-101 in the presence and absence of […]. As a control, cells were also separately treated with hFc (data not shown). Following treatment for 3 days, viable cells were then counted using trypan blue exclusion. […] Importantly, the ZR-75-1 cells exposed to 500 nM GO-101, but not hFc, was associated with ˜42% growth inhibition. However, there was a ˜90% growth inhibition when cells were treated with both H2O2 and GO-101 (FIG. 8).

[2] = test system: ZR-75-1 human breast carcinoma xenograft; format: in vivo; conditions: doxorubicin 6 mg/kg i.v. Q4D×3
Experimental: ZR-75-1 human breast carcinoma bearing nu/nu mice were dosed with either doxorubicin alone (squares) or in combination with 1 mg/kg GO-101 i.p daily×21 days (circles). Tumors were measured twice a week.
ZR-75-1 Hormone-dependent Breast Carcinoma Xenograft Model: Preliminary 1st TRAP Study in Combination with Doxorubicin (mean tumor volume+SE). ZR-75-1 human breast carcinoma bearing nu/nu mice were dosed with either doxorubicin 6 mg/kg i.v. Q4D×3 (squares) or 1 mg/kg GO-101 i.p daily×21 days+doxorubicin 6 mg/kg i.v. Q4D×3 (circles). Mice were weighed 2-3 times a week and tumor measurements were also performed 2-3 times a week. Points, mean tumor volumes±SE.
GO-101. To avoid freeze/thaw cycles, GO-101 protein (HG-batch GENU001) was prepared as multiple aliquots of frozen solution in PBS into individual treatment doses. The frozen tubes were stored at −80° C. until initiation of dosing. On each day of treatment, the appropriate tubes were allowed to thaw at room temperature. The resulting solution in each tube was clear and colorless with a pH of ˜6.5.
Upon receipt, the clear, red solution was stored at 4° C. protected from light. Dosing solutions were prepared just prior to each treatment by dilution with saline.
About 9-10 weeks old female mice (on the day of treatment) (CRL: NUFoxn1nu) were obtained from Charles River Labs. The mice were fed irradiated Rodent Diet 5053 and water ad libitum. […]

[3] = severe sepsis; decrease from about 31%; cited from earlier work

For `OO` [H2O2], the “inhibition in cell proliferation / growth inhibition” value [1] was roughly 66%.

For `COc1cccc2c1C(=O)c1c(O)c3c(c(O)c1C2=O)C[C@@](O)(C(=O)CO)C[C@@H]3O[C@H]1C[C@H](N)[C@H](O)[C@H](C)O1` [doxorubicin], the “tumor regressions / tumor free survivors” value [2] was “neither tumor regressions nor tumor free survivors” and the “anti-tumor activity based upon tumor growth delay” value ([2]; p=0.0356) was “significant”.

For drotrecogin alfa, the mortality [3] is listed as “about 25%”.
